Data on 24 compounds can be found in patent US20220306647A1, “NOVEL INDOLE-2-CARBOXAMIDES ACTIVE AGAINST THE HEPATITUS B VIRUS (HBV)” (AICURIS GMBH & CO. KG, priority 2019, published 2022).

For one assay, the system named is HBV (HepAD38 cells). In words: HBV replication assay: determination of HBV DNA from the supernatants of HepAD38 cells. To be noted: Hepatitis B virus, 144 h, HBV DNA in HepAD38 supernatant at day 6, qPCR, read-out: Cell activity. The class given is cell-based. In a few lines:
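HepAD38 cells seeded without tetracycline and treated with half-log compound dilutions; tetracycline-treated wells serve as cell control. On day 6, supernatant HBV DNA was purified and quantified by real-time PCR against plasmid standards; EC50 from non-linear regression of relative copy numbers, three experiments in triplicate.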
In general terms: Quantitative PCR measures a nucleic acid by following its amplification.

Assay [1] addresses T1, HBV core protein (C-terminal truncated core protein, 149 amino acids of the N-terminal assembly domain, BODIPY-FL labelled) (UniProt P03146).
T1 construct: fused on or other part: A single cysteine added after residue 149, at position 150; It carries the BODIPY-FL maleimide label
Description: Biochemical capsid assembly assay (fluorescence quenching). The procedure, abridged: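 Fluorescence quenching of BODIPY-FL-labelled core dimers (1.0 to 2.0 μM) in 50 mM HEPES pH 7.5; compounds at 8 concentrations, 0.5 log-unit dilutions from top 100, 31.6 or 10 μM, 0.5% DMSO. Assembly started with NaCl to […]; fluorescence (ex 477/em 525 nm) read after 6 min. EC50 by non-linear regression.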

Where [2] appears, read: assembly started with NaCl, fluorescence read after 6 min, read-out: Assembly activity.
The mark [3] stands for this setting: read-out: Assembly activity, assembly started with NaCl, fluorescence read after 6 min.

Like-named read-outs stand apart in the source and are kept apart here.

T1 sequence (P03146 whole entry, the tested form may be a part): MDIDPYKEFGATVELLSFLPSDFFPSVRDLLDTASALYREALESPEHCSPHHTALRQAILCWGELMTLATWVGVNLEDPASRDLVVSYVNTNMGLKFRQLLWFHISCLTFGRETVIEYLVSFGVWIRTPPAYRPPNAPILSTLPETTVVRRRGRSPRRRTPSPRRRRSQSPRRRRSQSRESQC

As to `CN1C(=O)c2c3c(nn2CCC12CC2)CCN(C(=O)c1cc2c(Cl)cccc2[nH]1)C3` [Example 68, 4′-(4-chloro-1H-indole-2-carbonyl)-13′-methyl-4′, 8′,9′,13′-tetraazaspiro[cyclopropane-1,12′-tricyclo[7.5.0.0^2,7]tetradecane]-1′,7′-dien-14′-one], the EC50 in the assay on HBV (HepAD38 cells) was under 1000 nM. Moreover, the IC50 in assay [1] (setting [2]) was under 5 µM.

`CN(C(=O)c1cnn2c1CN(C(=O)c1cc3c(Cl)cc(Cl)cc3[nH]1)CC2)C1(c2ccc(C(=O)O)cc2)CC1` [Example 69, 4-{1-[N-methyl-5-(4,6-dichloro-1H-indole-2-carbonyl)-4H,5H,6H,7H-pyrazolo[1,5-a]pyrazine-3-amido]cyclopropyl}benzoic acid]: the EC50 in the assay with HBV (HepAD38 cells) is under 1000 nM. Also, the IC50 in assay [1] (setting [3]) was under 5 µM.

For `CCc1cc(F)cc2[nH]c(C(=O)N3CCn4ncc(C(=O)N(C)C5(c6ccc(C(=O)O)cc6)CC5)c4C3)cc12` [Example 74, 4-{1-[N-methyl-5-(4-ethyl-6-fluoro-1H-indole-2-carbonyl)-4H,5H,6H,7H-pyrazolo[1,5-a]pyrazine-3-amido]cyclopropyl}benzoic acid], the EC50 in the assay with HBV (HepAD38 cells) was under 1000 nM. For the same compound, the IC50 in assay [1] (setting [2]) is under 5 µM.

`CN(C(=O)c1cnn2c1CN(C(=O)c1cc3c(F)cc(F)cc3[nH]1)CC2)C1(c2ccc(C(=O)O)cc2)CC1` [Example 75, 4-{1-[N-methyl-5-(4,6-difluoro-1H-indole-2-carbonyl)-4H,5H,6H,7H-pyrazolo[1,5-a]pyrazine-3-amido]cyclopropyl}benzoic acid]: the EC50 in the assay on HBV (HepAD38 cells) is under 1000 nM. Besides, in assay [1] (setting [2]), the IC50 is under 5 µM.

Regarding `CN(C(=O)c1cnn2c1CN(C(=O)c1cc3c(F)ccc(F)c3[nH]1)CC2)C1(c2ccc(C(=O)O)cc2)CC1` [Example 76, 4-{1-[N-methyl-5-(4,7-difluoro-1H-indole-2-carbonyl)-4H,5H,6H,7H-pyrazolo[1,5-a]pyrazine-3-amido]cyclopropyl}benzoic acid], in the assay with HBV (HepAD38 cells), the EC50 is under 1000 nM. Also, in assay [1] (setting [2]), the IC50 was under 5 µM.

As for `CN(C(=O)c1cnn2c1CN(C(=O)c1cc3cc(F)c(F)cc3[nH]1)CC2)C1(c2ccc(C(=O)O)cc2)CC1` [Example 77, 4-{1-[N-methyl-5-(5,6-difluoro-1H-indole-2-carbonyl)-4H,5H,6H,7H-pyrazolo[1,5-a]pyrazine-3-amido]cyclopropyl}benzoic acid], the EC50 in the assay on HBV (HepAD38 cells) is under 1000 nM. Also, the IC50 in assay [1] (setting [2]) was under 5 µM.

Consider `CN(C(=O)c1cnn2c1CN(C(=O)c1cc3c(F)c(F)c(F)cc3[nH]1)CC2)C1(c2ccc(C(=O)O)cc2)CC1` [Example 78, 4-{1-[N-methyl-5-(4,5,6-trifluoro-1H-indole-2-carbonyl)-4H,5H,6H,7H-pyrazolo[1,5-a]pyrazine-3-amido]cyclopropyl}benzoic acid], for which the EC50 in the assay on HBV (HepAD38 cells) was under 1000 nM. Further, the IC50 in assay [1] (setting [2]) is under 5 µM.

Turning to `CN1C(=O)c2c3c(nn2CC12CC2)CCN(C(=O)c1cc2cc(F)ccc2[nH]1)C3` [Example 79, 12′-(5-fluoro-1H-indole-2-carbonyl)-4′-methyl-4′,7′, 8′,12′-tetraazaspiro[cyclopropane-1,5′-tricyclo[7.4.0.0^2,7]tridecane]-1′,8′-dien-3′-one], the EC50 in the assay on HBV (HepAD38 cells) is under 1000 nM. For the same compound, the IC50 in assay [1] (setting [3]) is under 5 µM.

On to `CN(C(=O)c1cnn2c1CN(C(=O)c1cc3c(Cl)c(F)ccc3[nH]1)CC2)C1(c2ccc(C(=O)O)cc2)CC1` [Example 80, 4-{1-[N-methyl-5-(4-chloro-5-fluoro-1H-indole-2-carbonyl)-4H,5H,6H,7H-pyrazolo[1,5-a]pyrazine-3-amido]cyclopropyl}benzoic acid], for which, in the assay with HBV (HepAD38 cells), the EC50 was under 1000 nM. The IC50 in assay [1] (setting [2]) is under 5 µM.

As for `CN(C(=O)c1cnn2c1CN(C(=O)c1cc3c(Cl)cc(F)cc3[nH]1)CC2)C1(c2ccc(C(=O)O)cc2)CC1` [Example 81, 4-{1-[N-methyl-5-(4-chloro-6-fluoro-1H-indole-2-carbonyl)-4H,5H,6H,7H-pyrazolo[1,5-a]pyrazine-3-amido]cyclopropyl}benzoic acid], in the assay with HBV (HepAD38 cells), the EC50 was under 1000 nM. Moreover, the IC50 in assay [1] (setting [2]) is under 5 µM.

Regarding `Cc1cccc2[nH]c(C(=O)N3CCn4ncc(C(=O)N(C)C5(c6ccc(C(=O)O)cc6)CC5)c4C3)cc12` [Example 82, 4-{1-[N-methyl-5-(4-methyl-1H-indole-2-carbonyl)-4H,5H,6H,7H-pyrazolo[1,5-a]pyrazine-3-amido]cyclopropyl}benzoic acid], in the assay with HBV (HepAD38 cells), the EC50 is under 1000 nM. Moreover, the IC50 in assay [1] (setting [3]) was under 5 µM.

As for `CCc1cccc2[nH]c(C(=O)N3CCn4ncc(C(=O)N(C)C5(c6ccc(C(=O)O)cc6)CC5)c4C3)cc12` [Example 83, 4-{1-[N-methyl-5-(4-ethyl-1H-indole-2-carbonyl)-4H,5H,6H,7H-pyrazolo[1,5-a]pyrazine-3-amido]cyclopropyl}benzoic acid], in the assay with HBV (HepAD38 cells), the EC50 is under 1000 nM. Also, the IC50 in assay [1] (setting [2]) was under 5 µM.

Turning to `CN(C(=O)c1cnn2c1CN(C(=O)c1cc3ccccc3[nH]1)CC2)C1(c2cc(C(=O)O)on2)CC1` [Example 84], the EC50 in the assay with HBV (HepAD38 cells) was under 1000 nM. The IC50 in assay [1] (setting [3]) was under 5 µM.

In the case of `CN1C(=O)c2c3c(nn2CC12CC2)CCN(C(=O)c1cc2c(F)c(F)ccc2[nH]1)C3` [Example 85, 12′-(4,5-difluoro-1H-indole-2-carbonyl)-4′-methyl-4′,7′,8′,12′-tetraazaspiro[cyclopropane-1,5′-tricyclo[7.4.0.0^2,7]tridecane]-1′,8′-dien-3′-one], the EC50 in the assay with HBV (HepAD38 cells) was under 1000 nM. Also, the IC50 in assay [1] (setting [2]) was under 5 µM.

For the compound `CCN1C(=O)c2c3c(nn2CCC12CC2)CCN(C(=O)c1cc2ccccc2[nH]1)C3` [Example 86, 13′-ethyl-4′-(1H-indole-2-carbonyl)-4′,8′,9′,13′-tetraazaspiro[cyclopropane-1,12′-tricyclo[7.5.0.0^2,7]tetradecane]-1′,7′-dien-14′-one], the EC50 in the assay with HBV (HepAD38 cells) was under 1000 nM. Besides, in assay [1] (setting [2]), the IC50 is under 5 µM.

`CN1C(=O)c2c3c(nn2CC12CC2)CCN(C(=O)c1cc2c(Cl)c(F)ccc2[nH]1)C3` [Example 87, 12′-(4-chloro-5-fluoro-1H-indole-2-carbonyl)-4′-methyl-4′,7′,8′,12′-tetraazaspiro[cyclopropane-1,5′-tricyclo[7.4.0.0^2,7]tridecane]-1′,8′-dien-3′-one]: the EC50 with HBV (HepAD38 cells) was under 1000 nM. Moreover, the IC50 in assay [1] (setting [3]) was under 5 µM.

In the case of `Cc1cc(F)cc2[nH]c(C(=O)N3CCc4nn5c(c4C3)C(=O)N(C)C3(CC3)C5)cc12` [Example 88, 12′-(6-fluoro-4-methyl-1H-indole-2-carbonyl)-4′-methyl-4′,7′,8′,12′-tetraazaspiro[cyclopropane-1,5′-tricyclo[7.4.0.0^2,7]tridecane]-1′,8′-dien-3′-one], the EC50 in the assay on HBV (HepAD38 cells) was under 1000 nM. The IC50 in assay [1] (setting [2]) is under 5 µM.

In the case of `O=C(c1cc2ccccc2[nH]1)N1CCc2nn3c(c2C1)C(=O)N(CCO)C1(CC3)CC1` [Example 89, 13′-(2-hydroxyethyl)-4′-(1H-indole-2-carbonyl)-4′, 8′,9′,13′-tetraazaspiro[cyclopropane-1,12′-tricyclo[7.5.0.0^2,7]tetradecane]-1′,7′-dien-14′-one], in the assay with HBV (HepAD38 cells), the EC50 is under 1000 nM. Moreover, the IC50 in assay [1] (setting [2]) was under 5 µM.

In the case of `O=C(c1cc2ccccc2[nH]1)N1CCc2nn3c(c2C1)C(=O)N(CCOCc1ccccc1)C1(CC3)CC1` [Example 90, 13′-[2-(benzyloxy)ethyl]-4′-(1H-indole-2-carbonyl)-4′,8′,9′,13′-tetraazaspiro[cyclopropane-1,12′-tricyclo[7.5.0.0^2,7]tetradecane]-1′,7′-dien-14′-one], in the assay with HBV (HepAD38 cells), the EC50 is under 1000 nM. Moreover, the IC50 in assay [1] (setting [2]) is under 5 µM.

Consider `O=C(c1cc2ccccc2[nH]1)N1CCc2onc(C(=O)N3CCC(O)CC34CC4)c2C1` (stereo not drawn) [Example 95, 4-[5-(1H-indole-2-carbonyl)-4H,5H,6H,7H-[1,2]oxazolo[4,5-c]pyridine-3-carbonyl]-4-azaspiro[2.5]octan-7-ol], for which the EC50 in the assay on HBV (HepAD38 cells) is under 1000 nM. Also, in assay [1] (setting [2]), the IC50 was under 5 µM.

Turning to `O=C(c1cc2ccccc2[nH]1)N1CCc2onc(C(=O)N3CCCOCC34CC4)c2C1` [Example 96, 4-[5-(1H-indole-2-carbonyl)-4H,5H,6H,7H-[1,2]oxazolo[4,5-c]pyridine-3-carbonyl]-8-oxa-4-azaspiro[2.6]nonane], the EC50 in the assay on HBV (HepAD38 cells) is under 1000 nM. Further, in assay [1] (setting [2]), the IC50 is under 5 µM.

For `CN(C(=O)c1noc2c1CN(C(=O)c1cc3ccccc3[nH]1)CC2)C1(c2ccc(C(=O)O)cc2)CC1` [Example 97, 4-{1-[N-methyl-5-(1H-indole-2-carbonyl)-4H,5H,6H,7H-[1,2]oxazolo[4,5-c]pyridine-3-amido]cyclopropyl}benzoic acid], the EC50 with HBV (HepAD38 cells) is under 1000 nM. The IC50 in assay [1] (setting [2]) is under 5 µM.

For `CN(C(=O)c1noc2c1CN(C(=O)c1cc3ccccc3[nH]1)CC2)C1(c2ncc(C(=O)O)cn2)CC1` [Example 98, 2-{1-[N-methyl-5-(1H-indole-2-carbonyl)-4H,5H,6H,7H-[1,2]oxazolo[4,5-c]pyridine-3-amido]cyclopropyl}pyrimidine-5-carboxylic acid], the EC50 in the assay on HBV (HepAD38 cells) fell in the range of 1000 to 10000 nM. Besides, in assay [1] (setting [2]), the IC50 was under 5 µM.

For the compound `C[C@@H](NC(=O)c1noc2c1CN(C(=O)c1cc3cc(F)c(Cl)cc3[nH]1)CC2)C(F)(F)F` [Example 103, 5-(6-chloro-5-fluoro-1H-indole-2-carbonyl)-N-[(2R)-1,1,1-trifluoropropan-2-yl]-4H,5H,6H,7H-[1,2]oxazolo[4,5-c]pyridine-3-carboxamide], the EC50 in the assay with HBV (HepAD38 cells) is under 1000 nM. The IC50 in assay [1] (setting [2]) was under 5 µM.
